system: whole cells; experiment: Oxygen consumption rate (OCR) in whole cells, Seahorse XF-24 Flux Analyzer; type: cell-based; details: binned EC50 values; increase in oxygen consumption rate in whole cells
Method: Biological activities of the compounds synthesized is determined by determining increase in oxygen consumption rate (OCR).
OCR is measured using a Seahorse XF-24 Flux Analyzer (Seahorse Biosciences, North Billerica, MA). NMuLi, C2C12, and L6 cells are seeded in a Seahorse 24-well tissue culture plate at a density of 3.5×10^4 cells/well, isolated cardiomyocytes at a density of 4×10^4 cells/well, and human primary fibroblasts at a density of 1.1×10^4 cells/well. The cells are then allowed to adhere for 24 h. […] Compounds are injected during the assay and OCR is measured using 2 min measurement periods.
2-3 wells are used per condition and averaged over three plates (n=6-9). Statistical significance is determined by two-way ANOVA with Bonferroni's posttest.

EC50 [µM]	Compound
< 5	Fc1ccccc1Nc1nc2nonc2nc1Nc1ccccc1 [Compound 4a, N^5-(2-fluorophenyl)-N^6-phenyl-[1,2,5]oxadiazolo[3,4-b]pyrazine-5,6-diamine]
> 20	Fc1ccccc1Nc1nc2nonc2nc1Nc1ccccn1 [Compound 4b, N^5-(2-fluorophenyl)-N^6-(pyridin-2-yl)-[1,2,5]oxadiazolo[3,4-b]pyrazine-5,6-diamine]
< 5	Fc1ccccc1Nc1nc2nonc2nc1Nc1cccc(C(F)(F)F)c1F [Compound 4bb, N^5-(2-fluoro-3-(trifluoromethyl)phenyl)-N^6-(2-fluorophenyl)-[1,2,5]oxadiazolo[3,4-b]pyrazine-5,6-diamine]
< 5	Fc1ccc(Nc2nc3nonc3nc2Nc2ccccc2F)cc1 [Compound 4d, N^5-(2-fluorophenyl)-N^6-(4-fluorophenyl)-[1,2,5]oxadiazolo[3,4-b]pyrazine-5,6-diamine]
< 5	Fc1ccccc1Nc1nc2nonc2nc1Nc1cccc(F)c1F [Compound 4e, N^5-(2,3-difluorophenyl)-N^6-(2-fluorophenyl)-[1,2,5]oxadiazolo[3,4-b]pyrazine-5,6-diamine]
< 5	Fc1ccc(Nc2nc3nonc3nc2Nc2ccccc2F)c(F)c1 [Compound 4f, N^5-(2,4-difluorophenyl)-N^6-(2-fluorophenyl)-[1,2,5]oxadiazolo[3,4-b]pyrazine-5,6-diamine]
< 5	Cc1cccc(Nc2nc3nonc3nc2Nc2ccccc2F)c1 [Compound 4h, N^5-(2-fluorophenyl)-N^6-(m-tolyl)-[1,2,5]oxadiazolo[3,4-b]pyrazine-5,6-diamine]
5 to 20	Cc1ccc(Nc2nc3nonc3nc2Nc2ccccc2F)cc1 [Compound 4i, N^5-(2-fluorophenyl)-N^6-(p-tolyl)-[1,2,5]oxadiazolo[3,4-b]pyrazine-5,6-diamine]
< 5	COc1cccc(Nc2nc3nonc3nc2Nc2ccccc2F)c1 [Compound 4k, N^5-(2-fluorophenyl)-N^6-(3-methoxyphenyl)-[1,2,5]oxadiazolo[3,4-b]pyrazine-5,6-diamine]
5 to 20	Fc1ccccc1Nc1nc2nonc2nc1Nc1cccc(OC(F)(F)F)c1 [Compound 4r, N^5-(2-fluorophenyl)-N^6-(3-(trifluoromethoxy)phenyl)-[1,2,5]oxadiazolo[3,4-b]pyrazine-5,6-diamine]
< 5	Fc1ccccc1Nc1nc2nonc2nc1Nc1ccc(OC(F)(F)F)cc1 [Compound 4s, N^5-(2-fluorophenyl)-N^6-(4-(trifluoromethoxy)phenyl)-[1,2,5]oxadiazolo[3,4-b]pyrazine-5,6-diamine]
< 5	O=C(Nc1ccc(Nc2nc3nonc3nc2Nc2ccccc2F)cc1)C(F)(F)F [Compound 4t, 2,2,2-Trifluoro-N-(4-((6-((2-fluorophenyl)amino)-[1,2,5]oxadiazolo[3,4-b]pyrazin-5-yl)amino)phenyl)acetamide]
< 5	Fc1ccccc1Nc1nc2nonc2nc1Nc1ccccc1C(F)(F)F [Compound 4u, N^5-(2-fluorophenyl)-N^6-(2-(trifluoromethyl)phenyl)-[1,2,5]oxadiazolo[3,4-b]pyrazine-5,6-diamine]
< 5	Fc1ccccc1Nc1nc2nonc2nc1Nc1cccc(C(F)(F)F)c1 [Compound 4v, N^5-(2-fluorophenyl)-N^6-(3-(trifluoromethyl)phenyl)-[1,2,5]oxadiazolo[3,4-b]pyrazine-5,6-diamine]
< 5	Fc1ccccc1Nc1nc2nonc2nc1Nc1ccc(C(F)(F)F)cc1 [Compound 4w, N^5-(2-fluorophenyl)-N^6-(4-(trifluoromethyl)phenyl)-[1,2,5]oxadiazolo[3,4-b]pyrazine-5,6-diamine]
> 20	Oc1ccc(F)c(Nc2nc3nonc3nc2Nc2ccccc2F)c1 [Compound 4z, 4-Fluoro-3-((6-((2-fluorophenyl)amino)-[1,2,5]oxadiazolo[3,4-b]pyrazin-5-yl)amino)phenol]
5 to 20	Fc1ccccc1Nc1nc2nsnc2nc1Nc1ccccc1F [Compound 10, N^5,N^6-bis(2-fluorophenyl)-[1,2,5]thiadiazolo[3,4-b]pyrazine-5,6-diamine]
5 to 20	Fc1ccccc1Nc1nc2nc(C(F)(F)F)[nH]c2nc1Nc1ccccc1F [Compound 12a, N^5,N^6-bis(2-fluorophenyl)-2-(trifluoromethyl)-1H-imidazo[4,5-b]pyrazine-5,6-diamine]

The remaining lines, values behind:

Compound	EC50 [µM]
Fc1cc(Nc2nc3nonc3nc2Nc2ccc(C(F)(F)F)c(F)c2)ccc1C(F)(F)F [Compound 3x, N^5,N^6-bis(3-fluoro-4-(trifluoromethyl)phenyl)-[1,2,5]oxadiazolo[3,4-b]pyrazine-5,6-diamine]	< 5
Fc1ccc(C(F)(F)F)cc1Nc1nc2nonc2nc1Nc1cc(C(F)(F)F)ccc1F [Compound 3y, N^5,N^6-bis(2-fluoro-5-(trifluoromethyl)phenyl)-[1,2,5]oxadiazolo[3,4-b]pyrazine-5,6-diamine]	< 5
FC(F)(F)c1cc(Nc2nc3nonc3nc2Nc2cc(C(F)(F)F)cc(C(F)(F)F)c2)cc(C(F)(F)F)c1 [Compound 3z, N^5,N^6-bis(3,5-bis(trifluoromethyl)phenyl)-[1,2,5]oxadiazolo[3,4-b]pyrazine-5,6-diamine]	> 20
Fc1ccccc1Nc1nc2nonc2nc1Nc1cc(C(F)(F)F)cc(C(F)(F)F)c1 [Compound 4aa, N^5-(3,5-bis(trifluoromethyl)phenyl)-N^6-(2-fluorophenyl)-[1,2,5]oxadiazolo[3,4-b]pyrazine-5,6-diamine]	< 5
COc1ccc(Nc2nc3nonc3nc2Nc2ccccc2F)cc1 [Compound 4l, N^5-(2-fluorophenyl)-N^6-(4-methoxyphenyl)-[1,2,5]oxadiazolo[3,4-b]pyrazine-5,6-diamine]	< 5
CCOc1cccc(Nc2nc3nonc3nc2Nc2ccccc2F)c1 [Compound 4n, N^5-(3-ethoxyphenyl)-N^6-(2-fluorophenyl)-[1,2,5]oxadiazolo[3,4-b]pyrazine-5,6-diamine]	< 5
CCOc1ccc(Nc2nc3nonc3nc2Nc2ccccc2F)cc1 [Compound 4o, N^5-(4-ethoxyphenyl)-N^6-(2-fluorophenyl)-[1,2,5]oxadiazolo[3,4-b]pyrazine-5,6-diamine]	< 5
Fc1ccccc1Nc1nc2nonc2nc1Nc1ccccc1OC(F)(F)F [Compound 4q, N^5-(2-fluorophenyl)-N^6-(2-(trifluoromethoxy)phenyl)-[1,2,5]oxadiazolo[3,4-b]pyrazine-5,6-diamine]	< 5
FC(F)(F)c1ccc(Nc2nc3nonc3nc2Nc2cccc(C(F)(F)F)c2)cc1 [Compound 4x, N^5-(3-(trifluoromethyl)phenyl)-N^6-(4-(trifluoromethyl)phenyl)-[1,2,5]oxadiazolo[3,4-b]pyrazine-5,6-diamine]	< 5
COC(=O)c1ccc(Nc2nc3nonc3nc2Nc2ccccc2F)cc1 [Compound 4y, Methyl 4-((6-((2-fluorophenyl)amino)-[1,2,5]oxadiazolo[3,4-b]pyrazin-5-yl)amino)benzoate]	< 5
CNc1nc2nonc2nc1Nc1ccccc1F [Compound 7a, N^5-(2-fluorophenyl)-N^6-methyl-[1,2,5]oxadiazolo[3,4-b]pyrazine-5,6-diamine]	5 to 20
CCNc1nc2nonc2nc1Nc1ccccc1F [Compound 7b, N^5-ethyl-N^6-(2-fluorophenyl)-[1,2,5]oxadiazolo[3,4-b]pyrazine-5,6-diamine]	5 to 20
CCCNc1nc2nonc2nc1Nc1ccccc1F [Compound 7c, N^5-(2-fluorophenyl)-N^6-propyl-[1,2,5]oxadiazolo[3,4-b]pyrazine-5,6-diamine]	5 to 20
Fc1ccccc1Nc1nc2nonc2nc1NCCC(F)(F)F [Compound 7d, N^5-(2-fluorophenyl)-N^6-(3,3,3-trifluoropropyl)-[1,2,5]oxadiazolo[3,4-b]pyrazine-5,6-diamine]	> 20
Fc1ccccc1Nc1nc2nonc2nc1NC1CCCCC1 [Compound 7f, N^5-cyclohexyl-N^6-(2-fluorophenyl)-[1,2,5]oxadiazolo[3,4-b]pyrazine-5,6-diamine]	5 to 20
Fc1ccc(C(F)(F)F)cc1Nc1nc2nc(C(F)(F)F)[nH]c2nc1Nc1cc(C(F)(F)F)ccc1F [Compound 12b, N^5,N^6-bis(2-fluoro-5-(trifluoromethyl)phenyl)-2-(trifluoromethyl)-1H-imidazo[4,5-b]pyrazine-5,6-diamine]	5 to 20
FC(F)(F)c1cc(Nc2nc3nc(C(F)(F)F)[nH]c3nc2Nc2cc(C(F)(F)F)cc(C(F)(F)F)c2)cc(C(F)(F)F)c1 [Compound 12d, N^5,N^6-bis(3,5-bis(trifluoromethyl)phenyl)-2-(trifluoromethyl)-1H-imidazo[4,5-b]pyrazine-5,6-diamine]	5 to 20
Fc1c(Nc2nc3nc(C(F)(F)F)[nH]c3nc2Nc2cccc(C(F)(F)F)c2F)cccc1C(F)(F)F [Compound 12e, N^5,N^6-bis(2-fluoro-3-(trifluoromethyl)phenyl)-2-(trifluoromethyl)-1H-imidazo[4,5-b]pyrazine-5,6-diamine]	5 to 20
Fc1cc(Nc2nc3nc(C(F)(F)F)[nH]c3nc2Nc2ccc(OC(F)(F)F)c(F)c2)ccc1OC(F)(F)F [Compound 12f, N^5,N^6-bis(3-fluoro-4-(trifluoromethoxy)phenyl)-2-(trifluoromethyl)-1H-imidazo[4,5-b]pyrazine-5,6-diamine]	5 to 20
Fc1cc(C(F)(F)F)ccc1Nc1nc2nc(C(F)(F)F)[nH]c2nc1Nc1ccc(C(F)(F)F)cc1F [Compound 12g, N^5,N^6-bis(2-fluoro-4-(trifluoromethyl)phenyl)-2-(trifluoromethyl)-1H-imidazo[4,5-b]pyrazine-5,6-diamine]	< 5

— patent US11896591B2, “Compositions and methods for preparing and using mitochondrial uncouplers” (UNIVERSITY OF VIRGINIA PATENT FOUNDATION, priority 2017, dated 2024)
